The data set concerns CCRIS mutagenicity, Ames/micronucleus/aberration tests. Kind of data set: CCRIS mutagenicity studies.
Setting [1] is: Test System: AMES SALMONELLA TYPHIMURIUM, Strain/Indicator: TA98, Metabolic Activation: NONE, Method: PREINCUBATION

Active and inactive are the calls of the source. The rule behind the calls is not given here.

As for `Oc1cc(Cl)c(Cl)c(Cl)c1`, the mutagenic call was “inactive; negative; authors describe results as equivocal” (End Point: IN VITRO CHROMOSOMAL ABERRATIONS, Test System: CHINESE HAMSTER LUNG CELLS (CHL), Metabolic Activation: RAT, LIVER, S-9, KC-400); “inactive; negative” (End Point: IN VITRO CHROMOSOMAL ABERRATIONS, Test System: CHINESE HAMSTER OVARY CELLS (CHO), Metabolic Activation: NONE); “inactive; negative” (End Point: IN VITRO CHROMOSOMAL ABERRATIONS, Test System: CHINESE HAMSTER OVARY CELLS (CHO), Metabolic Activation: RAT, LIVER, S-9, AROCLOR 1254); “inactive; negative” (Test System: AMES SALMONELLA TYPHIMURIUM, Strain/Indicator: TA97, Metabolic Activation: HAMSTER, LIVER, S-9, AROCLOR 1254 (10%), Method: PREINCUBATION); “inactive; negative” (Test System: AMES SALMONELLA TYPHIMURIUM, Strain/Indicator: TA97, Metabolic Activation: HAMSTER, LIVER, S-9, AROCLOR 1254 (30%), Method: PREINCUBATION); “inactive; negative” (Test System: AMES SALMONELLA TYPHIMURIUM, Strain/Indicator: TA97, Metabolic Activation: NONE, Method: PREINCUBATION). The mutagenic call reads like this: (Test System: AMES SALMONELLA TYPHIMURIUM, Strain/Indicator: TA97, Metabolic Activation: RAT, LIVER, S-9, AROCLOR 1254 (10%), Method: PREINCUBATION) “inactive; negative”; (Test System: AMES SALMONELLA TYPHIMURIUM, Strain/Indicator: TA97, Metabolic Activation: RAT, LIVER, S-9, AROCLOR 1254 (30%), Method: PREINCUBATION) “inactive; negative”; (Test System: AMES SALMONELLA TYPHIMURIUM, Strain/Indicator: TA98, Metabolic Activation: HAMSTER, LIVER, S-9, AROCLOR 1254 (10%), Method: PREINCUBATION) “inactive; negative”; (Test System: AMES SALMONELLA TYPHIMURIUM, Strain/Indicator: TA98, Metabolic Activation: HAMSTER, LIVER, S-9, AROCLOR 1254 (30%), Method: PREINCUBATION) “inactive; negative”; under setting [1], “inactive; negative”; (Test System: AMES SALMONELLA TYPHIMURIUM, Strain/Indicator: TA98, Metabolic Activation: RAT, LIVER, S-9, AROCLOR 1254 (10%), Method: PREINCUBATION) “inactive; negative”. Besides, the mutagenic call (Test System: AMES SALMONELLA TYPHIMURIUM, Strain/Indicator: TA98, Metabolic Activation: RAT, LIVER, S-9, AROCLOR 1254 (30%), Method: PREINCUBATION) is “inactive; negative”; the mutagenic call (Test System: AMES SALMONELLA TYPHIMURIUM, Strain/Indicator: TA100, Metabolic Activation: HAMSTER, LIVER, S-9, AROCLOR 1254 (10%), Method: PREINCUBATION) is “inactive; negative”; the mutagenic call (Test System: AMES SALMONELLA TYPHIMURIUM, Strain/Indicator: TA100, Metabolic Activation: HAMSTER, LIVER, S-9, AROCLOR 1254 (30%), Method: PREINCUBATION) is “inactive; negative”; the mutagenic call (Test System: AMES SALMONELLA TYPHIMURIUM, Strain/Indicator: TA100, Metabolic Activation: NONE, Method: PREINCUBATION) was “inactive; negative”; the mutagenic call (Test System: AMES SALMONELLA TYPHIMURIUM, Strain/Indicator: TA100, Metabolic Activation: RAT, LIVER, S-9, AROCLOR 1254 (10%), Method: PREINCUBATION) was “inactive; negative”; the mutagenic call (Test System: AMES SALMONELLA TYPHIMURIUM, Strain/Indicator: TA100, Metabolic Activation: RAT, LIVER, S-9, AROCLOR 1254 (30%), Method: PREINCUBATION) is “inactive; negative”. Besides, the mutagenic call reads like this: (Test System: AMES SALMONELLA TYPHIMURIUM, Strain/Indicator: TA1535, Metabolic Activation: HAMSTER, LIVER, S-9, AROCLOR 1254 (10%), Method: PREINCUBATION) “inactive; negative”; (Test System: AMES SALMONELLA TYPHIMURIUM, Strain/Indicator: TA1535, Metabolic Activation: HAMSTER, LIVER, S-9, AROCLOR 1254 (30%), Method: PREINCUBATION) “inactive; negative”; (Test System: AMES SALMONELLA TYPHIMURIUM, Strain/Indicator: TA1535, Metabolic Activation: NONE, Method: PREINCUBATION) “inactive; negative”; (Test System: AMES SALMONELLA TYPHIMURIUM, Strain/Indicator: TA1535, Metabolic Activation: RAT, LIVER, S-9, AROCLOR 1254 (10%), Method: PREINCUBATION) “inactive; negative”; (Test System: AMES SALMONELLA TYPHIMURIUM, Strain/Indicator: TA1535, Metabolic Activation: RAT, LIVER, S-9, AROCLOR 1254 (30%), Method: PREINCUBATION) “inactive; negative”; (Test System: AMES SALMONELLA TYPHIMURIUM, Strain/Indicator: TA1537, Metabolic Activation: HAMSTER, LIVER, S-9, AROCLOR 1254 (30%), Method: PREINCUBATION) “inactive; negative”. Besides, the mutagenic call is “inactive; negative” (Test System: AMES SALMONELLA TYPHIMURIUM, Strain/Indicator: TA1537, Metabolic Activation: NONE, Method: PREINCUBATION) and “inactive; negative” (Test System: AMES SALMONELLA TYPHIMURIUM, Strain/Indicator: TA1537, Metabolic Activation: RAT, LIVER, S-9, AROCLOR 1254 (30%), Method: PREINCUBATION).
For `CC(=O)Nc1ccc(Nc2ccc([N+](=O)[O-])cc2)cc1`, the mutagenic call (Test System: AMES SALMONELLA TYPHIMURIUM, Strain/Indicator: TA98(NR), Metabolic Activation: NONE, Method: PREINCUBATION) is “inactive; negative”; the mutagenic call under setting [1] was “active; positive”; the mutagenic call (Test System: AMES SALMONELLA TYPHIMURIUM, Strain/Indicator: TA98, Metabolic Activation: RAT, LIVER, S-9, AROCLOR 1254, Method: PREINCUBATION) is “active; positive”.
